In PubChem BioAssay (NCI) one finds GI50 and TGI data, which are given here for eight compounds.

Common to all, as to test: NCI anticancer screen, dose series, 48 h
In assay [1] the test system is ACHN renal.
Assay [2] relates to HL-60(TB) leukemia.
Assay [3] has as its system HOP-62 NSCLC.
The subject of assay [4] is IGROV1 ovarian.
Assay [5] deals with K-562 leukemia.
For assay [6], the system named is MALME-3M melanoma.
In assay [7] the test system is OVCAR-3 ovarian.
Assay [8] deals with SF-268 CNS.
Assay [9] relates to SNB-75 CNS.
Assay [10] deals with SN12C renal.

SMILES strings stand for the structures.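 Grown in 96-well plates, cells were treated for 48 hours with each compound at five concentrations. Insufficient inhibition: endpoint recorded as highest concentration tested. The concentration for 50% growth inhibition is given as GI50. TGI marks complete inhibition of growth.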

With `Nc1nc(Cl)cc2c1ncn2C1OC(CO)C(O)C1O` (stereo unspecified), the GI50 in assay [1], in assay [2], in [3], in assay [4], in [5] and in [6] was more than 100 µM each time. The GI50 in assay [7], in assay [8] and in [9] was more than 100 µM throughout. The TGI in assay [1], in assay [2], in [3], in assay [4], in assay [5] and in assay [6] was more than 100 µM each time. Besides, the TGI in assay [7], in [8] and in [9] was more than 100 µM in each case.
Regarding `COC(=O)c1ccc2c(c1)[n+](=O)c(C(C)=O)c(C(F)(F)F)n2[O-]`, the GI50 in assay [1] is 1.76 µM; in [2], 1.94 µM; in assay [3], 1.94 µM; in assay [4], 1.75 µM; in assay [5], 2.31 µM; in assay [6] it was 1.96 µM. The GI50 is 1.82 µM in [7], 1.76 µM in assay [8] and 1.4 µM in assay [9]. The TGI in assay [1] was found to be 3.24 µM; in assay [2] it was 7.87 µM; in assay [3], 3.69 µM; in assay [4], 3.39 µM; in assay [5], 7.7 µM; in assay [6], 3.79 µM. Further, the figures for the TGI in [7], in assay [8] and in [9] were 3.27 µM, 3.24 µM and 2.71 µM, respectively.
For `COc1cc(C2CC(c3ccc(C)cc3)=NN2C(C)=O)ccc1Oc1ccnc2cc(Cl)ccc12` (stereo unspecified), the GI50 in [1] is 2.76 µM; in assay [2], more than 100 µM; in assay [3] it was 4.3 µM; in assay [4], 38.2 µM; in [5], more than 100 µM; in [6], more than 100 µM. Moreover, the GI50 in assay [7] was more than 100 µM; in assay [8] it was 38.4 µM; in [10], more than 100 µM; in assay [9] it was 0.482 µM. The TGI in assay [1], in [2], in assay [3], in assay [4], in assay [5] and in [6] was more than 100 µM throughout. The TGI was more than 100 µM in assay [7], more than 100 µM in [8], more than 100 µM in assay [10] and 5.93 µM in assay [9].
For `COc1ccc(NC(=O)CC(=O)n2nc(-c3ccccc3)c(N=Nc3ccc(C)cc3)c2-c2ccccc2)cc1`, the TGI was 60.9 µM in [1]; more than 100 µM in assay [2]; 38.4 µM in assay [3]; 49.9 µM in assay [4]; more than 100 µM in [5]; 70.3 µM in assay [6]. Also, the TGI stood at 77.2 µM in [7], 53.4 µM in assay [8], 81.9 µM in assay [10] and 41.2 µM in assay [9].
Consider `COc1ccc(CNCCN2C(=O)c3ccc4c5c(ccc(c35)C2=O)C(=O)N(CCNCc2ccc(OC)cc2)C4=O)cc1`, for which the GI50 in assay [1] is 0.312 µM; in assay [2] it was 0.311 µM; in assay [3] it was 0.579 µM; in assay [4], 0.204 µM; in [5] it was 0.217 µM; in [6], 0.123 µM. Also, the GI50 in assay [7] was 0.159 µM; in [8], 0.284 µM; in assay [10], 0.159 µM; in assay [9], 1.15 µM. Also, the TGI in assay [1] is 1.56 µM; in assay [2], 0.858 µM; in assay [3] it was 1.99 µM; in [4] it was 0.67 µM; in assay [5], 0.96 µM; in assay [6], 0.269 µM. Besides, the TGI is 0.573 µM in assay [7], 1.17 µM in assay [8], 0.323 µM in [10] and 2.48 µM in assay [9].
On to `COC(=O)c1nc(N)[nH]c(=O)c1-c1ccc(Cl)cc1`, for which the TGI in assay [1], in [2], in [3], in assay [4], in assay [5] and in assay [6] was more than 100 µM each time. Besides, the TGI in [7], in assay [8], in assay [10] and in [9] was more than 100 µM each time.
Turning to `COc1cc(C2C3=C(COC3=O)N(CCO)c3cc4c(cc32)OCCO4)cc(OC)c1O` (stereo unspecified), the GI50 in assay [1] was 5.94 µM; in [2], 1.52 µM; in assay [3] it was 2.72 µM; in assay [4], 1.17 µM; in assay [5], 1.89 µM; in assay [6], 1.23 µM. The GI50 was 0.947 µM in [7], 3.38 µM in [8], 4.1 µM in assay [10] and 0.713 µM in assay [9]. Also, the TGI in assay [1] is more than 50 µM; in assay [2], more than 13.5 µM; in [3], more than 50 µM; in [4], more than 16.5 µM; in assay [5], more than 50 µM; in assay [6], more than 50 µM. In addition, the TGI in [7] was 2.29 µM; in assay [8] it was more than 50 µM; in [10] it was more than 50 µM; in [9], more than 50 µM.
In the case of `O=C(/C=C(\O)C(=O)O)/C=C(\O)c1ccc(Cl)cc1`, the TGI in assay [1], in assay [2], in assay [3], in [4], in assay [5] and in assay [6] was more than 100 µM in each case. The TGI in assay [7], in assay [8], in assay [10] and in assay [9] was more than 100 µM each time.
